In US20250241927A1, “MEDICAMENT COMPRISING A P2X4 RECEPTOR ANTAGONIST FOR PREVENTING OR TREATING NOCICEPTIVE PAIN AND/OR VISCERAL PAIN” (NIPPON CHEMIPHAR CO., LTD., priority 2021, published 2025):
Entries after “also recorded” stand apart in the source; their conditions may differ. Where two headings read alike, the source gives them in different places.

Legend:
Format in all cases: in vivo, rat
[1] = test system: visceral pain (visceral hypersensitivity) in rats induced by intrarectal injection of DNBS; assay: Acute administration test: abdominal withdrawal reflex (AWR) to colorectal distension in DNBS-treated rats
Procedure: (§1) Male Sprague-Dawley rats (Envigo, Varese, Italy) weighing approximately 300 g at the beginning of a test were used. The animals were housed in Centro Stabulazione Animali da Laboratorio (CeSAL, University of Florence) and used at least one week after their arrival. Four rats were raised per cage (size 26×41 cm). The animals were fed with standard laboratory diet and tap water ad libitum and kept at 23±1° C. with a 12-hour light/dark cycle (light at 7:00 in the morning). All animal manipulations were carried out according to the European Community Guidelines for Animal Care (DL116/92) and the application of European Communities Council Directive of Nov. 24, 1986 (86/609/EEC). The ethical policy of the University of Florence complies with the Guide for the Care and Use of Laboratory Animals of the US National Institutes of Health (NIH Publication No. 85-23, revised 1996, University of Florence assurance number: A5278-01). Formal approval to conduct the experiments described was obtained from the Animal Subjects Review Board of the University of Florence. Experiments involving animals have been reported according to ARRIVE guidelines (McGrath and Lilley, Br. J. Pharmacol. 2015; 172:3189-3193). All efforts were made to minimize suffering of the animals and to reduce the number of animals used.
Colitis was induced by intrarectal administration of 15 mg of 2,4-dinitrobenzenesulfonic acid (DNBS; Sigma-Aldrich S.r.l., Milano, Italia) in 0.25 ml of 50% ethanol via a polyethylene PE-60 catheter inserted approximately 8 cm into the anus, while the rat was under short-term anesthesia by isoflurane (2%). […]
Compound A and Compound B were dissolved in water and orally administered 30 minutes before the beginning of a test, and an acute effect was evaluated.
(§2) Visceral sensitivity to colorectal distension (CRD) was evaluated by measurement of abdominal withdrawal reflex (AWR) in conscious animals using semiquantitative scores (Lucarini et al., Cells. 2020; 9 (8): E1772). […]
Visceral sensitivity was evaluated by measuring abdominal withdrawal reflex (AWR) to colorectal distension (0.5 to 3 mL).

[2] = test system: visceral pain (visceral hypersensitivity) in rats induced by intrarectal injection of DNBS; details: prevention test: daily from Day 1 to Day 6, evaluated 6 days after colitis induction, 24 hours after last treatment
Procedure: as §1, with “Experiments involving animals have been reported according to ARRIVE guidelines (McGrath and Lilley, Br. J. Pharmacol. 2015; 172:3189-3193). All efforts were made to minimize suffering of the animals and to reduce the number of animals used.” left out
as §2
Visceral sensitivity was evaluated by measuring AWR to colorectal distension (0.5 to 3 mL). […]

[3] = test system: colonic damage in rats induced by the intrarectal injection of DNBS; assay: Prevention test: macroscopic colonic damage score in DNBS-treated rats; details: prevention test: daily from Day 1 to Day 6
Procedure: (§3) Colitis was induced by intrarectal administration of 15 mg of 2,4-dinitrobenzenesulfonic acid (DNBS; Sigma-Aldrich S.r.l., Milano, Italia) in 0.25 ml of 50% ethanol via a polyethylene PE-60 catheter inserted approximately 8 cm into the anus, while the rat was under short-term anesthesia by isoflurane (2%). To control rats, 0.25 ml of a vehicle was administered.
(§4) In addition, in order to evaluate an effect of repeated administration of a P2X4 antagonist, two different tests (that is, prevention test and intervention test) were adopted. […]
(§5) The macroscopic criteria were as follows: • presence of adhesion between colon and another intraperitoneal organ (0-2: no adhesions: 0 points, adhesion with only one adjacent organ: 1 point, and adhesions with a plurality of adjacent organs: 2 points); • consistency of colon fecal matter (indirect marker of diarrhea; 0-2: formed stool: 0 points, loose stool: 1 point, and liquid stool: 2 points); • thickening of colonic wall (mm: 1 point was scored for 1 mm); and • presence and spread of hyperemia and macroscopic mucosal damage (0-5: none: 0 points, hyperemic: 1 point, ulcers without hyperemia or thickening of intestinal wall: 2 points, ulcer with inflammation at one site: 3 points, ulcers with inflammation at two or more sites: 4 points, and wide site of damage exceeding 1 cm along length of colon: 5 points). […]

[4] = Prevention test: body weight of DNBS-treated rats; details: Day 1 vs Day 6, DNBS weight loss approximately 10%, not significant
Procedure: (§6) In addition, in order to evaluate an effect of repeated administration of a P2X4 antagonist, two different tests (that is, prevention test and intervention test) were adopted. In the prevention test, the test medicament was administered daily to the rats immediately after the delivery of DNBS (Day 1), and the treatment was continued until the rats were sacrificed on the 6th day (Day 6). In the intervention test, the daily treatment with the medicament began 2 days after the delivery of DNBS (Day 3), and the rats were sacrificed on the 8th day (Day 8).
Visceral sensitivity was evaluated by measuring AWR to colorectal distension (0.5 to 3 mL). In the prevention test, the test medicament was administered daily to the rats immediately after the administration of DNBS, and the treatment was continued until the rats were sacrificed on the 6th day (Day 6). The evaluation was performed 6 days after the induction of colitis and 24 hours after the last treatment with Compound A (A) and Compound B (B). After the test, the animals were sacrificed, and macroscopic damage scores were assigned to their colons (FIG. 2C and FIG. 2D). In FIG. 2E and FIG. 2F, weights (g) of the animals before the DNBS injection (Day 1) and at the end of the preventive treatment with Compound A and Compound B (Day 6) are shown, respectively.

[5] = test system: visceral pain (visceral hypersensitivity) in rats induced by intrarectal injection of DNBS; assay: Intervention test (repeated administration): AWR to colorectal distension in DNBS-treated rats; details: for effect on visceral pain compared with the treatment with dexamethasone: intervention test; for onset of visceral pain (visceral hypersensitivity): intervention test: daily from Day 3 to Day 8, evaluated Day 8, 24 hours after last treatment
Procedure: as §1, §3, §6
Visceral sensitivity to colorectal distension (CRD) was evaluated by measurement of abdominal withdrawal reflex (AWR) in conscious animals using semiquantitative scores (Lucarini et al., Cells. 2020; 9 (8): E1772). Briefly, the rats were anesthetized with isoflurane. A lubricated latex balloon (length: 4.5 cm) that is assembled into an embolectomy catheter by being attached to a polyethylene tube to be connected to a syringe filled with water was inserted into the rectum and the descending colon of adult rats through the anus. […]

[6] = test system: colonic damage in rats induced by the intrarectal injection of DNBS; assay: Intervention test: macroscopic colonic damage score in DNBS-treated rats; details: intervention test: daily from Day 3 to Day 8
Procedure: as §3, §4, §5

[7] = Intervention test: body weight of DNBS-treated rats; details: Day 1 vs Day 8, DNBS weight loss approximately 10%, not significant
Procedure: as §6
In the test, the administration of the compounds began 2 days after the delivery of DNBS (Day 3) and was continued until the rats were sacrificed on the 8th day (Day 8). Evaluation was performed 8 days after the induction of colitis (Day 8) and 24 hours after the last treatment with Compound A (A) and Compound B (B). After the test, the animals were sacrificed, and macroscopic damage scores were assigned to their colons (FIG. 3C and FIG. 3D). In FIG. 3E and FIG. 3F, weights (g) of the animals before the DNBS injection (Day 1) and at the end of the intervention treatment with Compound A and Compound B (Day 8) are reported, respectively.

[8] = test system: occludin expression in colonic mucosa; assay: Occludin expression in colonic tissue of DNBS-induced rats by western blotting; details: 10 mg/kg

## O=C1CC(=O)N(c2cccc(-c3noc(=S)[nH]3)c2)c2ccc3ccccc3c2N1.[Na] [Compound A17, 5-[3-(5-thioxo-4H-[1,2,4]oxadiazol-3-yl)phenyl]-1H-naphtho[1,2-b][1,4]diazepine-2,4(3H,5H)-dione sodium salt]
[1]; acute administration, higher doses, DNBS animals
  visceral pain threshold: returned to a control value
[1]; acute oral administration 10 to 30 mg/kg, 30 minutes before test, seven days after DNBS
  AWR to colorectal distension: significantly and dose-dependently decreased
[2]
  onset of visceral pain (visceral hypersensitivity): counteracted
[3]
  colonic damage (macroscopic damage score): counteracted
[4]
  weight loss caused by DNBS: did not affect
[5]
  effect on visceral pain compared with the treatment with dexamethasone: more effective
  onset of visceral pain (visceral hypersensitivity): significantly reduces
[6]
  colonic damage (macroscopic damage score): significant reduction
[7]
  weight loss caused by DNBS: does not affect
[8]; listed as Compound A, sodium salt
  occludin expression in inflamed tissues compared to the DNBS-induced rats: increased; also recorded: counteract

## O=C1CC(=O)N(c2ccc(NC(=O)c3ccccc3I)cc2)c2ccc3ccccc3c2N1 [Compound B48, 5-[4-(2-iodobenzoylamino)phenyl]-1H-naphtho[1,2-b][1,4]diazepine-2,4(3H,5H)-dione]
[1]; acute oral administration 10 and 30 mg/kg, colorectal distension 1 to 2 mL
  AWR to colorectal distension: significantly reduced
[2]
  onset of visceral pain (visceral hypersensitivity): counteracted
[3]
  colonic damage (macroscopic damage score): counteracted
[4]
  weight loss caused by DNBS: did not affect
[5]
  effect on visceral pain compared with the treatment with dexamethasone: more effective
  onset of visceral pain (visceral hypersensitivity): significantly reduces
[6]
  colonic damage (macroscopic damage score): significant reduction
[7]
  weight loss caused by DNBS: does not affect
[8]; listed as Compound B
  occludin expression in inflamed tissues compared to the DNBS-induced rats: increased; also recorded: counteract
